Results on 14 molecules are retold here after patent US11220503B2, “Phthalazine derivatives, preparation method, pharmaceutical composition and usage thereof” (Shanghai SIMR Biotech Co., Ltd., priority 2015, dated 2022).

This assay addresses T1, α5β3γ2 receptor (Homo sapiens, UniProt P18507+P31644).
T1 construct: expressed in transfected cells; host or cells: HEK-293 (stably transfected)
Kind of assay: Supplementary data for cell level screening: new electrophysiology method (I. Lecker et al). Particulars: for Inverse agonism efficacy(%): new method, CsCl intracellular solution, GABA 0.1˜0.3 CM, other procedures as previous method; for inverse agonism efficacy of the compound/α5IA inverse agonism efficacy: ratio to the α5IA reference run above in the table (r4 or r29). The class given is cell-based. As to the method:
The inventors used electrophysiological methods to assay the inverse agonist efficacy of the substance to be tested. The detailed procedures are as follows: (1) Different subunits of GABAA receptors were expressed in human embryonic kidney cells 293 (HEK293). The cells were cultured in a culture medium and used as a cell model for screening potential analgesics. The α, β and γ subunits are necessary to form complete functional GABAA receptors. In this example, the inventor has established the following cell model: (a) α5 subunit (protein sequence is GenBank accession number: NP_001158509), β3 subunit (protein sequence is GenBank accession number: NP_068712) and γ2 subunit (protein sequence is GenBank accession number: NP_944494) were expressed in HEK-293 cell lines at the same time, which formed the complete functional GABAA receptors. (2) Cells were stably transfected HEK-293 cells expressing α5β3γ2 receptor, which were labeled by green fluorescent protein (GFP). Cells were grown in 10 cm dishes. The cells were passaged after reaching 80-90% confluence. During passaging, the culture medium was removed and discarded, 3 mL DMEM medium (Gibco™) was added to the dishes, the dishes were shaken slightly, and DMEM was removed and discarded. 3 mL Trypsin (Trypsin-EDTA 0.05%, Gibco™) was added and cells were digested at 37° C. for 3 minutes. Then 3 mL complete growth medium (DMEM+10% horse serum (Gibco™)) was added and the cells at the bottom of the culture dishes were dispersed. The cell suspension were transferred to a 15 mL centrifugal tube (Corning®) and then centrifuged at 200 g for 3 minutes. The supernatant was discarded, 4 mL complete growth medium was added, and the cells were resuspended by gently blowing. The cell suspension was diluted by 1:5 or 1:10 for subculturing. The cell suspension was diluted by 1:12 for electrophysiology experiment, which are added to the 24 well plate (Corning®) which has a glass slide pre-treated with poly-D-lysine. The cells were adhered to the slide before the experiment was conducted. The cells were maintained in culture for no more than 24 hours before use. (3) Compound concentration: for screening, all compounds were diluted to a final concentration of 100 nM. […] The compounds were at the concentration of 1 nM, 10 nM, 50 nM, 100 nM and 1000 nM in dose-inverse agonism efficacy (%) experiment. The whole cell patch clamp technique was used in electrophysiology experiments. The extracellular solution (ECS) contained: 150 mM NaCl, 5 mM KCl, 2.5 mM CaCl2, 1 mM MgCl2, 10 mM HEPES and 10 mM glucose (pH 7.4); […], 5 mM EGTA, 10 mM HEPES ([…] water). The currents were recorded by an EPC-10 amplifier and the PatchMaster software (HEKA). Patch electrodes with a resistance of 5-6 MΩ were pulled from borosilicate glass (Sutter). The diluted compounds were perfused by OCTAFLOWII system. GFP positive and independently growing cells were selected for recording. During recording, the membrane voltage was clamped at −60 mV. During experiment, the cells were firstly perfused with ECS for 20 seconds. When the baseline reached to a stable state, cells were then perfused with GABA solution. Then the current induced by GABA can be detected. After about 20-40 seconds, the current was stable. ECS was switched to compounds solution and the effects of the compounds were detected. At last, the perfusion solution was switched to ECS. The experiment was finished when the post-baseline returned to the pre-baseline before compounds perfusion. Only the data whose pre-baseline and post-baseline are at almost the same level were used for analysis. […] Then, compounds were diluted at the desired concentration in GABA ECS. (4) Currents were analyzed with the PatchMaster (HEKA) software. The GABA currents before (Ipre) and after (Ipost) compounds perfusion were recorded respectively. The efficacies of compounds were calculated by the following equation: inverse agonism efficacy=(Ipost-Ipre)*100/Ipre. N indicates experiment numbers. […]

T1 sequence (P31644 32-462): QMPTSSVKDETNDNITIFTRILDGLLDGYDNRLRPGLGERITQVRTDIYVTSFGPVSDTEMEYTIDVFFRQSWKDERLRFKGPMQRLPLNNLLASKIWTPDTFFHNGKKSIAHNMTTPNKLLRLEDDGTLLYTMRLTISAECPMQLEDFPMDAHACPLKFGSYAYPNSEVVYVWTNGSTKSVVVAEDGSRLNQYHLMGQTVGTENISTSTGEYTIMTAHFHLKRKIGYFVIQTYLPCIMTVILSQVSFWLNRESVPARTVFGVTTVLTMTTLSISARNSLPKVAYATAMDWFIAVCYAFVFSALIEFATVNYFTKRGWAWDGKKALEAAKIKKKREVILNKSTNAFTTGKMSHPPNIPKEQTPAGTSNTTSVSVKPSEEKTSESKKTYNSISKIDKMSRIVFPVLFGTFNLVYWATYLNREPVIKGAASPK
T1 sequence (P28472 26-473 isoform P28472-2 partner limits assumed): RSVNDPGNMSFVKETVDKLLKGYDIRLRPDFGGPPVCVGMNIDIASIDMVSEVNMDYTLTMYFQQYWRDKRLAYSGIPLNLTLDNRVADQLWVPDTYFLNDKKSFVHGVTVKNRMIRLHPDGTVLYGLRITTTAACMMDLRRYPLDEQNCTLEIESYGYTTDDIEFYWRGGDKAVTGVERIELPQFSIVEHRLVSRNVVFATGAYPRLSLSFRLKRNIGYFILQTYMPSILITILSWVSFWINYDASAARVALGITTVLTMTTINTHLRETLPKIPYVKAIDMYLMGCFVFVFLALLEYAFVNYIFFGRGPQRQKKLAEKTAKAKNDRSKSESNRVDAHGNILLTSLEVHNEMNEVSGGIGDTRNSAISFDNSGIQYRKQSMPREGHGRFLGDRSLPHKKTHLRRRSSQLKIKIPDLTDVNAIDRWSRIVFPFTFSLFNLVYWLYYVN
T1 sequence (P18507 40-475): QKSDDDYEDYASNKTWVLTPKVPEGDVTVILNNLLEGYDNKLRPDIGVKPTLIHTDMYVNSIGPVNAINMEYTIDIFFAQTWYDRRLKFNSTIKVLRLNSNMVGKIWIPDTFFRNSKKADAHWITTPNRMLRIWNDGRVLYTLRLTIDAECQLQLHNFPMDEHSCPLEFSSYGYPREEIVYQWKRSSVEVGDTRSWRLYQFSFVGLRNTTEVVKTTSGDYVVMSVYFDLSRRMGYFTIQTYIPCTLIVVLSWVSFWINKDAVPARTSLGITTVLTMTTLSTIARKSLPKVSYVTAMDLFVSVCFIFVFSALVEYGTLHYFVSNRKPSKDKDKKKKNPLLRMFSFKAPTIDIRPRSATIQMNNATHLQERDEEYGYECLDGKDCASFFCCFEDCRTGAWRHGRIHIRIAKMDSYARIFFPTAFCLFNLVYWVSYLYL

`Cc1cc(-c2nnc3c4ccccc4c(OCc4ccc(C(=O)NC5CC5)cn4)nn23)no1` [Compound 04, N-cyclopropyl-6-(((3-(5-methylisoxazol-3-yl)-[1,2,4]triazolo[3,4-a]phthalazin-6-yl)oxy)methyl) nicotinamide]: the “Inverse agonism efficacy(%)” value is on record as −26.5% and the “inverse agonism efficacy of the compound/α5IA inverse agonism efficacy” value is given as 1.526.
Regarding `Cc1cc(-c2nnc3c4ccccc4c(OCc4ccc(C(=O)NC5CCN(C)CC5)cn4)nn23)no1` [Compound 11, 6-(((3-(5-methylisoxazol-3-yl)-[1,2,4]triazolo[3,4-a]phthalazin-6-yl)oxy)methyl)-N-(1-methylpiperidin-4-yl)nicotinamide], the “Inverse agonism efficacy(%)” value is −17.71% and the “inverse agonism efficacy of the compound/α5IA inverse agonism efficacy” value was 1.020.
In the case of `Cc1cc(-c2nnc3c4ccccc4c(OCc4ccc(C(=O)NCCN5CCOCC5)cn4)nn23)no1` [Compound 12, 6-(((3-(5-methylisoxazol-3-yl)-[1,2,4]triazolo[3,4-a]phthalazin-6-yl)oxy)methyl)-N-(2-morpholinoethyl)nicotinamide], the “Inverse agonism efficacy(%)” value was −19.0625% and the “inverse agonism efficacy of the compound/α5IA inverse agonism efficacy” value is 1.098.
For `COC1CCN(C(=O)c2ccc(COc3nn4c(-c5cc(C)on5)nnc4c4ccccc34)nc2)CC1` [Compound 22, (4-methoxypiperidin-1-yl)(6-(((3-(5-methylisoxazol-3-yl)-[1,2,4]triazolo[3,4-a]phthalazin-6-yl)oxy)methyl)pyridin-3-yl)methanone], in that order: −33% and 1.774.
Consider `Cc1cc(-c2nnc3c4ccccc4c(OCc4ccc(C(=O)NCC5CCCO5)cn4)nn23)no1` (stereo not shown) [Compound 26, 6-(((3-(5-methylisoxazol-3-yl)-[1,2,4]triazolo[3,4-a]phthalazin-6-yl)oxy)methyl)-N-((tetrahydrofuran-2-yl)methyl)nicotinamide], for which the “Inverse agonism efficacy(%)” value was −21.5% and the “inverse agonism efficacy of the compound/α5IA inverse agonism efficacy” value is reported as 1.238.
As for `Cc1cc(-c2nnc3c4ccccc4c(OCc4ccc(C(=O)NCCS(C)(=O)=O)cn4)nn23)no1` [Compound 27, 6-(((3-(5-methylisoxazol-3-yl)-[1,2,4]triazolo[3,4-a]phthalazin-6-yl)oxy)methyl)-N-(2-(methylsulfonyl)ethyl)nicotinamide], the “Inverse agonism efficacy(%)” value is reported as −32.1% and the “inverse agonism efficacy of the compound/α5IA inverse agonism efficacy” value is on record as 1.726.
For `Cc1cc(-c2nnc3c4ccccc4c(OCc4ccc(C(N)=O)cn4)nn23)no1` [Compound 28, 6-(((3-(5-methylisoxazol-3-yl)-[1,2,4]triazolo[3,4-a]phthalazin-6-yl)oxy)methyl)nicotinamide], in that order: −19.86% and 1.143.
As to `Cc1cc(-c2nnc3c4ccccc4c(OCc4ccc(C(=O)NCC(F)(F)F)cn4)nn23)no1` [Compound 30, 6-(((3-(5-methylisoxazol-3-yl)-[1,2,4]triazolo[3,4-a]phthalazin-6-yl)oxy)methyl)-N-(2,2,2-trifluoroethyl)nicotinamide], the “Inverse agonism efficacy(%)” value is listed as −52% and the “inverse agonism efficacy of the compound/α5IA inverse agonism efficacy” value worked out at 2.796.
For `O=C(NC1CC1)c1ccc(COc2nn3c(-c4cc(CO)on4)nnc3c3ccccc23)nc1` [Compound 36, N-cyclopropyl-6-(((3-(5-(hydroxymethyl)isoxazol-3-yl)-[1,2,4]triazolo[3,4-a]phthalazin-6-yl)oxy)methyl)nicotinamide], in that order: −28.8% and 1.658.
Turning to `O=C(NCC(F)(F)F)c1ccc(COc2nn3c(-c4cc(CO)on4)nnc3c3ccccc23)nc1` [Compound 42, 6-(((3-(5-(hydroxymethyl)isoxazol-3-yl)-[1,2,4]triazolo[3,4-a]phthalazin-6-yl)oxy)methyl)-N-(2,2,2-trifluoroethyl)nicotinamide], the “Inverse agonism efficacy(%)” value is listed as −32.5% and the “inverse agonism efficacy of the compound/α5IA inverse agonism efficacy” value worked out at 1.871.
As to `O=C(NC1CCOCC1)c1ccc(COc2nn3c(-c4cc(CO)on4)nnc3c3ccccc23)nc1` [Compound 44, 6-(((3-(5-(hydroxymethyl)isoxazol-3-yl)-[1,2,4]triazolo[3,4-a]phthalazin-6-yl)oxy)methyl)-N-(tetrahydro-2H-pyran-4-yl)nicotinamide], the “Inverse agonism efficacy(%)” value is recorded as −20.8% and the “inverse agonism efficacy of the compound/α5IA inverse agonism efficacy” value worked out at 1.196.
As to `O=C(c1ccc(COc2nn3c(-c4cc(CO)on4)nnc3c3ccccc23)nc1)N1CCC1` [Compound 49, azetidin-1-yl-(6-(((3-(5-(hydroxymethyl)isoxazol-3-yl)-[1,2,4]triazolo[3,4-a]phthalazin-6-yl)oxy)methyl)pyridin-3-yl)methanone], the “Inverse agonism efficacy(%)” value was −22.2% and the “inverse agonism efficacy of the compound/α5IA inverse agonism efficacy” value was 1.278.
For `CS(=O)(=O)NNC(=O)c1ccc(COc2nn3c(-c4cc(CO)on4)nnc3c3ccccc23)nc1` [Compound 53, N′-(6-(((3-(5-(hydroxymethyl)isoxazol-3-yl)-[1,2,4]triazolo[3,4-a]phthalazin-6-yl)oxy)methyl)nicotinoyl)methanesulfonohydrazide] the same measures were −22.8% and 1.313.
For `N#Cc1cc(C(=O)N[C@H]2CCC[C@@H]2O)ccc1COc1nn2c(-c3cc(CO)on3)nnc2c2ccccc12` [Compound 56, 3-cyano-N-((1S,2S)-2-hydroxycyclopentyl)-4-(((3-(5-(hydroxymethyl)isoxazol-3-yl)-[1,2,4]triazolo[3,4-a]phthalazin-6-yl)oxy)methyl)benzamide] the same measures were −27.6% and 1.589.
